Test results as given in publication PMC4186413, “Identification of metabolic pathways and enzyme systems involved in the in vitro human hepatic metabolism of dronedarone, a potent new oral antiarrhythmic drug” (Pharmacology Research & Perspectives, 2014).

Columns and labels:
MAO = molecular target: T1, MAO (Homo sapiens, UniProt P21397); test: Contribution of MAO to hepatocyte clearance (clorgyline inhibitory effect); type: in vitro ADME; settings: for Effect of clorgyline on metabolism in hepatocytes: 5 μmol/L drug; for fm MAO, Mean ± SD: mean of hepatocyte preparations
T1 construct: host or cells: cryopreserved human hepatocytes in primary culture
T1 sequence (P21397 1-527): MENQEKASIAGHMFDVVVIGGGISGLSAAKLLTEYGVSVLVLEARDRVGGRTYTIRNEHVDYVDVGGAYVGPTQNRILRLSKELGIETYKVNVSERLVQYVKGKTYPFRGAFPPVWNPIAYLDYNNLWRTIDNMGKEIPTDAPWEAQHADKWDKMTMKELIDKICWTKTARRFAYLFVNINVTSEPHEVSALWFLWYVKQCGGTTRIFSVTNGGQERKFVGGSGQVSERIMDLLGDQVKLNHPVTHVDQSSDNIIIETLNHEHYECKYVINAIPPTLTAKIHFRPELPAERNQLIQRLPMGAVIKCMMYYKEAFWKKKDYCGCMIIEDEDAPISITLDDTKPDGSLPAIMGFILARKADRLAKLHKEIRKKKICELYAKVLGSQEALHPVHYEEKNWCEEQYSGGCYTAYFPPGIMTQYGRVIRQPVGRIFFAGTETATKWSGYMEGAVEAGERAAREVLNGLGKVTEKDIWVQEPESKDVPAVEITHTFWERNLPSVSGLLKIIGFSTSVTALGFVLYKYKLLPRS
Description: Experiments were performed in 48-well plastic plates coated with rat tail Collagen type I. Plates were seeded with 0.16 × 10^5 hepatocytes per well in a final volume of 0.2 mL and incubated at 37°C under a 95% humidified air and 5% CO2 atmosphere. After 3 h during which cells were allowed to attach, the medium was renewed with 0.1 mL serum-free medium. Then, the investigated drug or metabolic probe(s) were added directly to the incubation medium in the absence or the presence of inhibitors such as either ketoconazole as a specific and potent CYP3A inhibitor (3 μmol/L final concentration), clorgyline (0.25 μmol/L final concentration) as a potent MAO-A inhibitor or ABT as a potent but nonselective CYP isoforms inhibitor (1 mmol/L final concentration) (Fabre et al. [1988]; Bourrié et al. [1996]; Klieber et al. [2008]). Regardless of the final concentration investigated, the final solvent (DMSO) concentration never exceeded 0.2% (v/v).
To determine the metabolism of the different compounds (metabolic probes, dronedarone, N-debutyl-dronedarone, propanoic acid-dronedarone, phenol-dronedarone, and C-dealkyl-dronedarone), kinetic studies were performed over 0–24 h. For each time point, 0.1 mL of acetonitrile was added to the specific well for protein precipitation, and both extracellular medium and the cell fraction were scraped together. Cell extracts were transferred to a glass tube and stored at −20°C until analysis. Before analysis, cell homogenates were sonicated for a few seconds, homogenized and centrifuged at 6000 g for 10 min. Supernatant fluids were then analyzed for the different drugs and their specific metabolites.
The fraction metabolized (fm) by MAO, CYP3A or total CYPs was determined using the following equation: [drawing 3] where: kei is the elimination rate constant (expressed in h^−1) in the presence of the inhibitor.
The kinetics of drug disappearance were investigated using four different cryopreserved human hepatocyte preparations in primary cultures following incubation with either dronedarone or its metabolites at a concentration of 5 μmol/L. Incubations were performed either in the absence, that is control conditions, or in the presence of enzyme system inhibitors such as 3 μmol/L ketoconazole (specific and potent inhibitor of CYP3A4/5), 1 mmol/L ABT (a potent and […] inhibitor of total CYPs), or 0.25 μmol/L clorgyline (a potent MAO-A inhibitor) (Dorris [1982]). Kinetic studies were performed over 24 h.

CYP2D6 = molecular target: T2, CYP2D6 (Homo sapiens, UniProt P10635); test: Oxidation by recombinant human CYP2D6; type: in vitro ADME; settings: for Percentage of oxidation (unchanged drug disappearance) by CYP2D6: 100 pmol/mL, 5 μmol/L, 30 min, NADPH
T2 construct: purchased BD Gentest (Woburn, MA); host or cells: baculovirus-infected insect cells
T2 sequence (P10635 whole entry): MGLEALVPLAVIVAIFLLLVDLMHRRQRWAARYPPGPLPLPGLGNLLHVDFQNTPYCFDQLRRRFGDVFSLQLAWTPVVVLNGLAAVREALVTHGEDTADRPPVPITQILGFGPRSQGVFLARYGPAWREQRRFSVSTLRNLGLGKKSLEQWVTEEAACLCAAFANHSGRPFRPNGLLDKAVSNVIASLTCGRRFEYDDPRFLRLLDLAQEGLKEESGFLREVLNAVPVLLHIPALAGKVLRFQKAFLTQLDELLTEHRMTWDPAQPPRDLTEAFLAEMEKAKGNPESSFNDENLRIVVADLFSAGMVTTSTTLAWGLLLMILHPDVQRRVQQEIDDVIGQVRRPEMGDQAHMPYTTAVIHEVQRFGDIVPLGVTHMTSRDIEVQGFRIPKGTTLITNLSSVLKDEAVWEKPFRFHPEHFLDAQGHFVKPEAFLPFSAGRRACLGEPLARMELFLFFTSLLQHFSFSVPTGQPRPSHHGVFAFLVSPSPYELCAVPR
Text: Recombinant human CYPs (Supersomes™; BD Gentes, Woburn, MA: CYP1A1, CYP1A2, CYP2A6, CYP2B6, CYP2C8, CYP2C9, CYP2C18, CYP2C19, CYP2D6, CYP2E1, CYP3A4 and CYP3A5), FMOs (Supersomes™: FMO1, FMO3, FMO5), MAOs (Supersomes™: MAO-A and MAO-B), and UGTs (Supersomes™: UGT1A1, UGT1A3, UGT1A4, UGT1A6, UGT1A7, UGT1A8, UGT1A9, UGT1A10, UGT2B4, UGT2B7, UGT2B15, and UGT2B17) expressed in baculovirus-infected insect cells and control microsomes from insect cells infected with wild-type baculovirus were all obtained from BD Gentest (Woburn, MA).
For oxidative pathways, the assay mixture was composed of human liver microsomes (1 mg·m·L^−1) or microsomes of baculovirus-infected cells expressing human enzymes (100 pmol·mL^−1 for CYPs and 1 mg·mL^−1 for FMOs and MAOs), nicotinamide adenine dinucleotide phosphate reduced form (NADPH) (1 mmol/L), 100 mmol/L potassium phosphate (pH 7.4), and 5 μmol/L of the investigated compound dissolved in DMSO in a final volume of 500 μL.
The final concentration of DMSO in the reaction mixture was less than 1% (v/v). Initial rate conditions with respect to time and protein concentration for both the disappearance of unchanged drug and the formation of respective metabolites were established in preliminary studies. The enzyme reaction was initiated by addition of NADPH (10 mmol/L aqueous solution) to achieve a final concentration of 1 mmol/L for oxidative CYP- and FMO-dependent reactions or by the drug for MAO-dependent reactions, incubated at 37°C and stopped after 0–30 min by addition of one volume of ice-cold acetonitrile.
In human liver microsomes and recombinant isoforms, the percentage of metabolism was determined on the basis of unchanged drug disappearance, using the following equation [drawing 1] where UDt = 30 min represents the unchanged drug peak area after a 30-min incubation period and UDt = 0, the unchanged drug peak area at t = 0.
To identify the specific isoforms that are capable of oxidizing dronedarone and its metabolites, assays were performed using c-DNA-expressed isoforms belonging to CYP- (CYP1A1, -1A2, -2A6, -2B6, -C8, -2C9, -2C18, -2C19, -2D6, -2E1, -3A4, and -3A5), FMO- (FMO-1, -3, and -5) and MAO- (MAO-A and MAO-B) families.
Figure 5 Contribution of individual CYPs, FMOs and MAOs to the oxidation of dronedarone and its metabolites. […] Unchanged drugs were quantified by LC/MS-MS relative to the synthetic references as described in Materials and Methods. Data are expressed as the percentage of oxidation.

[1] = HU-1358, 0.25 μmol/L clorgyline
[2] = IVT-IBG, 0.25 μmol/L clorgyline

SMILES | Effect of clorgyline on metabolism in hepatocytes (MAO; 0.25 μmol/L clorgyline) | fm MAO (MAO; BD-91, 0.25 μmol/L clorgyline) | fm MAO (MAO; BD-296, 0.25 μmol/L clorgyline) | fm MAO (MAO; [1]) | fm MAO (MAO; [2]) | fm MAO, Mean ± SD (MAO; 0.25 μmol/L clorgyline) | Percentage of oxidation (unchanged drug disappearance) by CYP2D6 (CYP2D6) | Metabolite formed, as percent of initial dronedarone concentration, with CYP2D6 (CYP2D6; 5 μmol/L dronedarone, end of 30-min incubation)
CCCCN(CCCC)CCCOc1ccc(C(=O)O)cc1 [C-dealkyl-dronedarone] | no effect | – | – | – | – | – | – | –
CCCCc1oc2ccc(NS(C)(=O)=O)cc2c1C(=O)c1ccc(OCCC(=O)O)cc1 [Propanoic acid-dronedarone] | no inhibitory effect | 12% | 0% | 0% | 0% | 3 ± 5% | – | –
CCCCNCCCOc1ccc(C(=O)c2c(CCCC)oc3ccc(NS(C)(=O)=O)cc23)cc1 [N-debutyl-dronedarone] | potently inhibited | 88% | 80% | 86% | 83% | 84 ± 3% | 55% | less than 1%
CCCCc1oc2ccc(NS(C)(=O)=O)cc2c1C(=O)c1ccc(OCCCN(CCCC)CCCC)cc1.Cl [Dronedarone, N-(2-Butyl-3-(4-(3-(dibutylamino)propoxy)benzoyl)-5-benzofuranyl)methanesulfonamide, hydrochloride] | minor inhibitory effect | 18% | – | 23% | 43% | 29 ± 14% | 50% | –
CCCCc1oc2ccc(NS(C)(=O)=O)cc2c1C(=O)c1ccc(O)cc1 [Phenol-dronedarone] | did not contribute | – | – | – | – | – | 94% | –
